According to the NIST ThermoML archive (doi:10.1021/acs.jced.8b00182):

Experiments:
[1] = Liquid; for mass density: 298.15 K, 100 kPa, Vibrating tube method; for vapor or sublimation pressure / Normal boiling temperature: Ebulliometric method (Recirculating still)
[2] = refractive index (Na D-line) (dimensionless); details: 298.15 K; 101.33 kPa; Liquid; Standard Abbe refractometry
[3] = xn = mol fraction of the nth substance listed; details: 298.15 K, 100 kPa, Liquid, Vibrating tube method

CCCCO [butan-1-ol]
Details | mass density [kg/m3] | refractive index
[1] | 805.9 | –
[2] | – | 1.39732

Details | vapor or sublimation pressure [kPa]
[1], 402.59 K | 150

CCCCO [butan-1-ol] + CCCCOC(C)=O
Details | mass density [kg/m3]
[3], x2 = 0 | 805.9

CCCCOC(C)=O [butyl ethanoate]
Details | Normal boiling temperature [°C] | mass density [kg/m3] | refractive index
[1] | 125.83 | 876.5 | –
[2] | – | – | 1.39201

Details | vapor or sublimation pressure [kPa]
[1], 413.3 K | 150

CCCCOC(C)=O [butyl ethanoate] + CCCCO
[3]
Details | mass density [kg/m3]
x1 = 0.0758 | 812.9
x1 = 0.1018 | 815.2
x1 = 0.1458 | 819
x1 = 0.2387 | 826.7
x1 = 0.3151 | 832.7
x1 = 0.3468 | 835.1
x1 = 0.3845 | 837.9
x1 = 0.3983 | 838.9
x1 = 0.4316 | 841.3
x1 = 0.5002 | 846.1
x1 = 0.5883 | 852
x1 = 0.6709 | 857.3
x1 = 0.7064 | 859.5
x1 = 0.7919 | 864.7
x1 = 0.8673 | 869.1
x1 = 0.9259 | 872.4
x1 = 0.9503 | 873.8
x1 = 1 | 876.5

CCCCOC(C)=O [butyl ethanoate] + CCCO
[3]
Details | mass density [kg/m3]
x1 = 0.0433 | 805.1
x1 = 0.1028 | 812.1
x1 = 0.2026 | 822.6
x1 = 0.2517 | 827.3
x1 = 0.2927 | 831
x1 = 0.35 | 835.9
x1 = 0.3986 | 839.8
x1 = 0.4482 | 843.6
x1 = 0.554 | 851.1
x1 = 0.5962 | 853.9
x1 = 0.6371 | 856.5
x1 = 0.7071 | 860.8
x1 = 0.7623 | 864
x1 = 0.8001 | 866.1
x1 = 0.8413 | 868.4
x1 = 0.8942 | 871.2
x1 = 0.9401 | 873.5
x1 = 1 | 876.5

CCCCOC(C)=O [butyl ethanoate] + CCO
[3]
Details | mass density [kg/m3]
x1 = 0.0443 | 793.7
x1 = 0.1461 | 810.2
x1 = 0.2003 | 817.6
x1 = 0.2554 | 824.3
x1 = 0.2954 | 828.8
x1 = 0.3487 | 834.3
x1 = 0.4451 | 843
x1 = 0.4968 | 847.2
x1 = 0.5987 | 854.6
x1 = 0.6505 | 858
x1 = 0.7492 | 863.9
x1 = 0.8035 | 866.9
x1 = 0.8567 | 869.7
x1 = 0.8978 | 871.7
x1 = 0.9429 | 873.9
x1 = 1 | 876.5

CCO [ethanol]
Details | Normal boiling temperature [°C] | mass density [kg/m3] | refractive index
[1] | 78.30 | 785.2 | –
[2] | – | – | 1.35933

Details | vapor or sublimation pressure [kPa]
[1], 361.98 K | 150

CCO [ethanol] + CCCCOC(C)=O
Details | mass density [kg/m3]
[3], x2 = 0 | 785.2

CO [methanol]
Details | vapor or sublimation pressure [kPa]
[1], 348.27 K | 150

Details | Normal boiling temperature [°C] | refractive index
[1] | 64.70 | –
[2] | – | 1.32676

CCCO [propan-1-ol]
Details | Normal boiling temperature [°C] | mass density [kg/m3] | refractive index
[1] | 97.20 | 799.6 | –
[2] | – | – | 1.38315

Details | vapor or sublimation pressure [kPa]
[1], 381.24 K | 150

CCCO [propan-1-ol] + CCCCOC(C)=O
Details | mass density [kg/m3]
[3], x2 = 0 | 799.6
